Results: PMC12344683, “N-alkyl and N-benzyl indoles are anti-SARS-CoV-2 agents and nsp13 inhibitors” (Journal of Enzyme Inhibition and Medicinal Chemistry, 2025)
Like-named read-outs stand apart in the source and are kept apart here.

Tested on: SARS-CoV-2
Test: microbe, parasite or virus in culture
Type: cell-based, SARS-CoV-2 variant omicron XBB.1.16.11
Settings: for antiviral activity against SARS-CoV-2 (in words): up to 50 μM
[1] = Severe acute respiratory syndrome coronavirus 2, Vero C1008, read-out: EC50, concentration required to reduce the SARS-CoV-2 replication in Vero cells by 50%
[2] = Severe acute respiratory syndrome coronavirus 2, plaque assay, SARS-CoV-2 in Vero cells, read-out: 95% confidence interval (CI) of EC50

| Compound | EC50 [1] [µM] | EC50 [2] [µM] | antiviral activity against SARS-CoV-2 (in words) (plaque assay) |
| --- | --- | --- | --- |
| CC(C)c1ccc(Cn2cc(/C=C/C(=O)/C=C(\O)C(=O)O)c3ccccc32)cc1 [5c] | 9.41 ± 0.91 | 8.54 to 10.4 | – |
| O=C(/C=C(\O)C(=O)O)/C=C/c1cn(Cc2ccc(OC(F)(F)F)cc2)c2ccccc12 [5e] | 9.4 ± 2.26 | 7.36 to 11.9 | – |
| N#Cc1ccc(Cn2cc(/C=C/C(=O)/C=C(\O)C(=O)O)c3ccccc32)cc1 [5g, (2Z,5E)-6-(1-(4-cyanobenzyl)-1H-indol-3-yl)-2-hydroxy-4-oxohexa-2,5-dienoic acid] | 14.5 ± 4.2 | 10.9 to 19.3 | – |
| O=C(/C=C(\O)C(=O)O)/C=C/c1cn(Cc2ccc(F)cc2)c2ccc(Cl)cc12 [5i, (2Z,5E)-6-(5-chloro-1-(4-fluorobenzyl)-1H-indol-3-yl)-2-hydroxy-4-oxohexa-2,5-dienoic acid] | 6.77 ± 1.17 | 5.69 to 8.03 | – |
| CCOC(=O)/C(O)=C/C(=O)/C=C/c1cn(Cc2ccc(OC(F)(F)F)cc2)c2ccccc12 [6e] | 50 | – | low activity |
| CCOC(=O)/C(O)=C/C(=O)c1cn(Cc2ccc(F)cc2)c2ccccc12 [8d, Ethyl (Z)-4-(1-(4-fluorobenzyl)-1H-indol-3-yl)-2-hydroxy-4-oxobut-2-enoate] | > 50 | – | not showed any antiviral activity up to the maximum concentration tested |
| CC(C)=Cn1cc(/C=C/C(=O)/C=C(\O)C(=O)O)c2ccccc21 [9c, (2Z,5E)-2-hydroxy-6-(1-(2-methylprop-1-en-1-yl)-1H-indol-3-yl)-4-oxohexa-2,5-dienoic acid] | 4.23 ± 0.96 | 3.33 to 5.26 | – |
